Measured values reported in patent US12421254B2, “KRAS modulators and uses thereof” (Quanta Therapeutics, Inc., priority 2023, dated 2025).
pIC50: −log10 of the molar value.

Assays:
[1] = target: GST-tagged KRAS-G12D (2-169) (Homo sapiens, UniProt P01116, G12D); assay: Nucleotide exchange assay (NEA), SOS-mediated, HTRF, KRAS G12D; assay type: biochemical; conditions: Table 4; IC50 extracted at 30 min; 20 nM SOScat; read-out: NEA G12D IC50
In short: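 SOS1cat-driven loading of fluorescent GTP-DY-647P1 (150 nM) onto GST-KRAS-G12D (2-169, 0.25 nM) read by time-resolved FRET; SOScat 20 nM, compound preincubated with KRAS 1 h at RT. Signal blanked to no-SOS reactions, normalized to DMSO; IC50 fitted from the 30-min read.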

[2] = target: GST-tagged KRAS-G12V (2-169) (Homo sapiens, UniProt P01116, G12V); assay: Nucleotide exchange assay (NEA), SOS-mediated, HTRF, KRAS G12V; assay type: biochemical; conditions: Table 4; IC50 extracted at 90 min; 80 nM SOS
Chain of GST-tagged KRAS-G12V (2-169) (P01116 2-169 isoform P01116-2 G12V): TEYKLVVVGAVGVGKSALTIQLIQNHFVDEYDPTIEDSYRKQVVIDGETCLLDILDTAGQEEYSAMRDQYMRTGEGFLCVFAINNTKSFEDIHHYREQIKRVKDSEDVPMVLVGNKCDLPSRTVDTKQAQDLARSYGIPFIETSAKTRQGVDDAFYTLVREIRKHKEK
In short: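 Exchange onto fluorescent GTP-DY-647P1 (150 nM final) catalysed by 80 nM SOS1cat was followed by Tb-anti-GST HTRF at RT for up to 90 min, after 1 h compound pre-incubation with 0.25 nM GST-tagged KRAS-G12V (2-169), pH 7.3. DMSO = 0%, no-SOS blank = 100%; 4-parameter IC50 taken at 90 min.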

Chain of GST-tagged KRAS-G12D (2-169) (P01116 2-169 isoform P01116-2 G12D): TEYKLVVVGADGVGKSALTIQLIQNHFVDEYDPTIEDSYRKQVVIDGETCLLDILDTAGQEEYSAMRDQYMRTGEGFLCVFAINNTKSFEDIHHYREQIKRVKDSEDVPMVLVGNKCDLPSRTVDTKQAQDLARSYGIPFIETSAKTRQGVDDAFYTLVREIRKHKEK

Compound | pIC50 [1] | pIC50 [2]
N#Cc1c(N)sc2c1C1(CN(c3nc(OC[C@@]45CCCN4C[C@H](F)C5)nc(N(CC(=O)O)Cc4cccnc4N)n3)C1)SC2 [Compound 187, 2-[[4-(2-amino-3-cyano-spiro[6H-thieno[3,4-b]thiophene-4,3′-azetidine]-1′-yl)-6-[[(2R,8S)-2-fluoro-1,2,3,5,6,7-hexahydropyrrolizin-8-yl]methoxy]-1,3,5-triazin-2-yl]-[(2-amino-3-pyridyl)methyl]amino]acetic acid] | 7.00 to 8.00 | > 8.00
CN(c1nc(OC[C@@]23CCCN2C[C@H](F)C3)nc(N2CC3(CCc4sc(N)c(C#N)c43)C2)n1)[C@H]1COC[C@H]1O (racemic) [Compound 53, 2-amino-1′-[4-[[(2R,8S)-2-fluoro-1,2,3,5,6,7-hexahydropyrrolizin-8-yl]methoxy]-6-[[rac-(3S,4S)-4-hydroxytetrahydrofuran-3-yl]-methyl-amino]-1,3,5-triazin-2-yl]spiro[5,6-dihydrocyclopenta[b]thiophene-4,3′-azetidine]-3-carbonitrile] | 4.70 to 6.00 | 6.00 to 7.00
CC1(O)COCCN(c2nc(OC[C@@]34CCCN3C[C@H](F)C4)nc(N3CC4(C3)SCc3sc(N)c(C#N)c34)n2)C1 (stereo partly drawn) [Compound 268, 2-amino-1′-[4-[[(2R,8S)-2-fluoro-1,2,3,5,6,7-hexahydropyrrolizin-8-yl]methoxy]-6-(6-hydroxy-6-methyl-1,4-oxazepan-4-yl)-1,3,5-triazin-2-yl]spiro[6H-thieno[3,4-b]thiophene-4,3′-azetidine]-3-carbonitrile] | > 8.00 | > 8.00
N#Cc1c(N)sc2c1C1(CC2)CN(c2nc(OC[C@@]34CCCN3C[C@H](F)C4)nc(N3CCCC(C#N)C(O)C3)n2)C1 (mixture of isomers) [Compound 96, 2-amino-1′-[4-(4-cyano-3-hydroxy-azepan-1-yl)-6-[[rac-(2R,8S)-2-fluoro-1,2,3,5,6,7-hexahydropyrrolizin-8-yl]methoxy]-1,3,5-triazin-2-yl]spiro[5,6-dihydrocyclopenta[b]thiophene-4,3′-azetidine]-3-carbonitrile] | 6.00 to 7.00 | 7.00 to 8.00
N#Cc1c(N)sc2c1C1(CC2)CN(c2nc(OCC3(CN4CCOCC4)CC3)nc(N3CCCC(O)(CO)C3)n2)C1 (stereo not drawn) [Compound 95, 2-amino-1′-[4-[3-hydroxy-3-(hydroxymethyl)-1-piperidyl]-6-[[1-(morpholinomethyl)cyclopropyl]methoxy]-1,3,5-triazin-2-yl]spiro[5,6-dihydrocyclopenta[b]thiophene-4,3′-azetidine]-3-carbonitrile] | 7.00 to 8.00 | 7.00 to 8.00
CC(Nc1nc(OC[C@@]23CCCN2C[C@H](F)C3)nc(N2CC3(CCc4sc(N)c(C#N)c43)C2)n1)c1cccnc1N (stereo partly drawn) [Compound 88, 2-amino-1′-[4-[1-(2-amino-3-pyridyl)ethylamino]-6-[[(2R,8S)-2-fluoro-1,2,3,5,6,7-hexahydropyrrolizin-8-yl]methoxy]-1,3,5-triazin-2-yl]spiro[5,6-dihydrocyclopenta[b]thiophene-4,3′-azetidine]-3-carbonitrile] | 6.00 to 7.00 | > 8.00
C[C@@H]1[C@H](C#N)CCCN1c1nc(OC[C@@]23CCCN2C[C@H](F)C3)nc(N2CC3(CCc4sc(N)c(C#N)c43)C2)n1 (racemic) [Compound 29, 2-amino-1′-[4-[rac-(2R,3R)-3-cyano-2-methyl-1-piperidyl]-6-[[(2R,8S)-2-fluoro-1,2,3,5,6,7-hexahydropyrrolizin-8-yl]methoxy]-1,3,5-triazin-2-yl]spiro[5,6-dihydrocyclopenta[b]thiophene-4,3′-azetidine]-3-carbonitrile] | 6.00 to 7.00 | 6.00 to 7.00
CC(c1nccnc1N)N(C)c1nc(OC[C@@]23CCCN2C[C@H](F)C3)nc(N2CC3(CCc4sc(N)c(C#N)c43)C2)n1 (single isomer, unassigned) [Compound 116B, 2-amino-1′-[4-[[(1*)-1-(3-aminopyrazin-2-yl)ethyl]-methyl-amino]-6-[[(2R,8S)-2-fluoro-1,2,3,5,6,7-hexahydropyrrolizin-8-yl]methoxy]-1,3,5-triazin-2-yl]spiro[5,6-dihydrocyclopenta[b]thiophene-4,3′-azetidine]-3-carbonitrile] | 6.00 to 7.00 | 7.00 to 8.00
C[C@]1(CO)C[C@H](O)CN1c1nc(OC[C@@]23CCCN2C[C@H](F)C3)nc(N2CC3(CCc4sc(N)c(C#N)c43)C2)n1 [Compound 72, 2-amino-1′-[4-[[(2R,8S)-2-fluoro-1,2,3,5,6,7-hexahydropyrrolizin-8-yl]methoxy]-6-[(2R,4S)-4-hydroxy-2-(hydroxymethyl)-2-methyl-pyrrolidin-1-yl]-1,3,5-triazin-2-yl]spiro[5,6-dihydrocyclopenta[b]thiophene-4,3′-azetidine]-3-carbonitrile] | 6.00 to 7.00 | 6.00 to 7.00
CN(c1nc(OC[C@@]23CCCN2C[C@H](F)C3)nc(N2CC3(CCc4sc(N)c(C#N)c43)C2)n1)[C@@H]1COC[C@H]1O (racemic) [Compound 90, 2-amino-1′-[4-[[(2R,8S)-2-fluoro-1,2,3,5,6,7-hexahydropyrrolizin-8-yl]methoxy]-6-[[rac-(3R,4S)-4-hydroxytetrahydrofuran-3-yl]-methyl-amino]-1,3,5-triazin-2-yl]spiro[5,6-dihydrocyclopenta[b]thiophene-4,3′-azetidine]-3-carbonitrile] | 6.00 to 7.00 | 6.00 to 7.00
CC(=O)CC(=O)N1[C@@H]2CC[C@H]1CN(c1nc(OC[C@@]34CCCN3C[C@H](F)C4)nc(N3CC4(C3)SCc3sc(N)c(C#N)c34)n1)C2 [Compound 145, 2-amino-1′-[4-[[(2R,8S)-2-fluoro-1,2,3,5,6,7-hexahydropyrrolizin-8-yl]methoxy]-6-[(1R,5S)-8-(3-oxobutanoyl)-3,8-diazabicyclo[3.2.1]octan-3-yl]-1,3,5-triazin-2-yl]spiro[6H-thieno[3,4-b]thiophene-4,3′-azetidine]-3-carbonitrile] | 4.70 to 6.00 | 6.00 to 7.00
CN(c1nc(OC[C@@]23CCCN2C[C@H](F)C3)nc(N2CC3(C2)SCc2sc(N)c(C#N)c23)n1)[C@H]1[C@H]2CN[C@@H]1C2 [Compound 257, 2-amino-1′-[4-[[(1R,4R,5S)-2-azabicyclo[2.1.1]hexan-5-yl]-methyl-amino]-6-[[(2R,8S)-2-fluoro-1,2,3,5,6,7-hexahydropyrrolizin-8-yl]methoxy]-1,3,5-triazin-2-yl]spiro[6H-thieno[3,4-b]thiophene-4,3′-azetidine]-3-carbonitrile] | > 8.00 | 7.00 to 8.00
C[C@H](c1cccnc1N)N(C)c1nc(OCC2(N(C)C)CC2)nc(N2CC3(C2)SCc2sc(N)c(C#N)c23)n1 [Compound 181, 2-amino-1′-[4-[[(1R)-1-(2-amino-3-pyridyl)ethyl]-methyl-amino]-6-[[1-(dimethylamino)cyclopropyl]methoxy]-1,3,5-triazin-2-yl]spiro[6H-thieno[2,3-c]thiophene-4,3′-azetidine]-3-carbonitrile] | 6.00 to 7.00 | 7.00 to 8.00
N#Cc1c(N)sc2c1C1(CC2)CN(c2nc(OC[C@@]34CCCN3C[C@H](F)C4)nc(N(CCO)Cc3c(F)ccnc3N)n2)C1 [Compound 154, 2-amino-1′-[4-[(2-amino-4-fluoro-3-pyridyl)methyl-(2-hydroxyethyl)amino]-6-[[(2R,8S)-2-fluoro-1,2,3,5,6,7-hexahydropyrrolizin-8-yl]methoxy]-1,3,5-triazin-2-yl]spiro[5,6-dihydrocyclopenta[b]thiophene-4,3′-azetidine]-3-carbonitrile] | 7.00 to 8.00 | > 8.00
COc1ccc(C(C)N(C)c2nc(OC[C@@]34CCCN3C[C@H](F)C4)nc(N3CC4(C3)SCc3sc(N)c(C#N)c34)n2)c(N)n1 (stereo partly drawn) [Compound 233, 2′-amino-1-(4-((1-(2-amino-6-methoxypyridin-3-yl)ethyl)(methyl)amino)-6-(((2R,7aS)-2-fluorotetrahydro-1H-pyrrolizin-7a(5H)-yl)methoxy)-1,3,5-triazin-2-yl)-6′H-spiro[azetidine-3,4′-thieno[3,4-b]thiophene]-3′-carbonitrile] | 4.70 to 6.00 | 6.00 to 7.00
C[C@@]1(O)CCCN(c2nc(OCC3(CN4CCOCC4)CC3)nc(N3CCC4(CCCc5sc(N)c(C#N)c54)C3)n2)C1 (stereo partly drawn) [Compound 64, 2-amino-1′-[4-[(3R)-3-hydroxy-3-methyl-1-piperidyl]-6-[[1-(morpholinomethyl)cyclopropyl]methoxy]-1,3,5-triazin-2-yl]spiro[6,7-dihydro-5H-benzothiophene-4,3′-pyrrolidine]-3-carbonitrile] | 4.70 to 6.00 | 4.70 to 6.00
CC(c1ccc[n+]([O-])c1)N(C)c1nc(OC[C@@]23CCCN2C[C@H](F)C3)nc(N2CC3(C2)SCc2sc(N)c(C#N)c23)n1 (stereo partly drawn) [Compound 224, 3-(1-((4-(2′-amino-3′-cyano-6′H-spiro[azetidine-3,4′-thieno[3,4-b]thiophen]-1-yl)-6-(((2R,7aS)-2-fluorotetrahydro-1H-pyrrolizin-7a(5H)-yl)methoxy)-1,3,5-triazin-2-yl)(methyl)amino)ethyl)pyridine 1-oxide] | 7.00 to 8.00 | 7.00 to 8.00
N#Cc1c(N)sc2c1C1(CN(c3nc(OC[C@@]45CCCN4C[C@H](F)C5)nc(N(Cc4cccnc4N)C4COC4)n3)C1)SC2 [Compound 217, 2-amino-1′-[4-[(2-amino-3-pyridyl)methyl-(oxetan-3-yl)amino]-6-[[(2R,8S)-2-fluoro-1,2,3,5,6,7-hexahydropyrrolizin-8-yl]methoxy]-1,3,5-triazin-2-yl]spiro[6H-thieno[3,4-b]thiophene-4,3′-azetidine]-3-carbonitrile] | 4.70 to 6.00 | 6.00 to 7.00
